Results on 13 compounds are retold here after patent publication US11384075B2, “Quinolinone compounds” (Janssen Pharmaceutica NV, priority 2017, dated 2022).

Experiment [1] deals with T1, NIH/3T3 cells overexpressing FGFR3 V555M-TACC3 fusion protein (Homo sapiens, UniProt P22607, V555M, cells depend on it).
T1 construct: NIH/3T3 FGFR3 V555M-TACC3 CTG (IC50); other: 72-hr incubation, CellTiter Glo, starting with 10 μM; fused on or other part: Q9Y6A5 (Transforming acidic coiled-coil-containing protein 3)
T1 sequence (P22607 whole entry V555M, the tested form may be a part): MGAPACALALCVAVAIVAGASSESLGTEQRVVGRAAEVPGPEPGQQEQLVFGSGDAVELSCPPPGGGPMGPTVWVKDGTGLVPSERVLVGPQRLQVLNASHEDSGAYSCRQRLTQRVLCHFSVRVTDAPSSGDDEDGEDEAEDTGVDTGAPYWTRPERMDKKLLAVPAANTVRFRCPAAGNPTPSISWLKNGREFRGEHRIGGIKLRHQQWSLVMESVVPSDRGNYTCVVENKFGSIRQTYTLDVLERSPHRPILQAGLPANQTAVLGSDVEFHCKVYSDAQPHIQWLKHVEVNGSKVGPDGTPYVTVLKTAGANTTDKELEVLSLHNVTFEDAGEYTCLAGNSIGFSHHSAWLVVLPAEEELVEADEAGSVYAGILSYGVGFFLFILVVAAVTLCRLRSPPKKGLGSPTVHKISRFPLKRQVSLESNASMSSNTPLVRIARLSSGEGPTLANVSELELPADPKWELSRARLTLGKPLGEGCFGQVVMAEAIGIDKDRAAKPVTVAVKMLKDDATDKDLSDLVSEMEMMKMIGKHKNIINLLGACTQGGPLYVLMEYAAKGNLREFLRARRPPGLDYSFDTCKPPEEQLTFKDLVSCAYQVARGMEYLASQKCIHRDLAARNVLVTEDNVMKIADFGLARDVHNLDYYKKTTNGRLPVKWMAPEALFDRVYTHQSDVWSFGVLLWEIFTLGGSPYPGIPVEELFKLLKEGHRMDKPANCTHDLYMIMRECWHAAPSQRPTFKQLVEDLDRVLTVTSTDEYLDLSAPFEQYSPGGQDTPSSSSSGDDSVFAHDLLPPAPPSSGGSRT
Description: NIH/3T3 FGFR3 V555M-TACC3 cell proliferation assay. In kind it is cell-based. The following applies: 72-hr incubation, CellTiter Glo, starting with 10 μM; read-out: NIH/3T3 FGFR3 V555M-TACC3 CTG (IC50). The gist of the method:
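NIH/3T3 cells overexpressing FGFR3 V555M-TACC3 fusion, 30,000/well in DMEM/10% FBS, treated for 72 h at 37 °C with 9 doses (4× dilutions from 10 μM top, 0.1% DMSO). CellTiter-Glo luminescence normalised to % survival; IC50, pIC50 and Hill slope from concentration-response fits.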
In general terms: ATP-based viability assays read luminescence as a measure of living cells.

In experiment [2] the test system is NIH/3T3 cells transfected with the same control vector. In words: NIH/3T3 mock cell proliferation assay (counter assay, general toxicity). It counts as cell-based. The following applies: Mus musculus, NIH3T3, 72 h, 72-hr incubation, CellTiter Glo, starting with 30 μM; counter assay for general toxicity; read-out: NIH/3T3 MOCK CTG (IC50). In a few lines:
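Control-vector NIH/3T3 cells, 30,000/well in DMEM with 10% FBS, exposed 72 h at 37 °C to compound (9 points, 3-fold from 30 μM, 0.3% DMSO). CellTiter-Glo luminescence normalized to survival %; IC50, pIC50 and Hill slope from concentration-response fit.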

In experiment [3] the target is T2, human FGFR3 wild type enzyme (cytoplasmic domain) (Homo sapiens, UniProt P22607).
T2 construct: human FGFR3 wild type enzyme (cytoplasmic domain, from Carna Biosciences); purchased Carna Biosciences
T2 sequence (P22607 397-806 limits assumed): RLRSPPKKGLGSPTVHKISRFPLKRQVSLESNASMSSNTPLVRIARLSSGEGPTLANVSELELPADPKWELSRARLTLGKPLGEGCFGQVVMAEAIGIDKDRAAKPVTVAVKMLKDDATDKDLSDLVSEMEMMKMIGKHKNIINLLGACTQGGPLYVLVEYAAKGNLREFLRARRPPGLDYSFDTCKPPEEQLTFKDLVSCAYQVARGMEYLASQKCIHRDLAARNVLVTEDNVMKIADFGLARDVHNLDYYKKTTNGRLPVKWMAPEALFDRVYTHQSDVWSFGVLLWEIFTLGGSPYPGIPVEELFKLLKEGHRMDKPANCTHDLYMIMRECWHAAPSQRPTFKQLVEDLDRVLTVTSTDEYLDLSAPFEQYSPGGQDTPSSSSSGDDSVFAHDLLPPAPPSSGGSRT
In words: FGFR3 wild type mobility shift assay (enzymatic assay). It counts as biochemical. The following applies: 75 μM ATP, 50 minutes at 30° C., Caliper EZ reader II. In a few lines: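 Cytoplasmic domain of human wild-type FGFR3 (0.04 ng/μL) with 75 μM ATP and 1 μM FL-peptide 30, pH 7.4 HEPES/MgCl2 buffer, 1% DMSO, 50 min at 30 °C, EDTA-stopped. Substrate-product conversion read by mobility shift. IC50, pIC50 and Hill slope from 10-point 4-fold dilutions starting at 10 μM.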

The target in experiment [4] is T3, human FGFR3 V555M enzyme (cytoplasmic domain carrying V555M mutation) (Homo sapiens, UniProt P22607, V555M).
T3 construct: human FGFR3 V555M enzyme (cytoplasmic domain carrying V555M mutation, from Carna Biosciences); purchased Carna Biosciences
T3 sequence (P22607 397-806 V555M limits assumed): as the sequence (P22607 397-806 limits assumed) above, with V159M counted along it
Description: FGFR3 V555M mobility shift assay (enzymatic assay). It counts as biochemical. The following applies: 30 μM ATP, 45 minutes at 30° C., Caliper EZ reader II. In a few lines:
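Cytoplasmic-domain FGFR3 V555M (0.04 ng/μL) with 30 μM ATP and 1 μM FL-peptide 30 in HEPES pH 7.4/MgCl2/Brij35/DTT, 1% DMSO, 45 min at 30 °C, EDTA-stopped. Mobility-shift read of substrate-product conversion; 10-point 4× dilution from 10 μM fitted for IC50/pIC50.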

Experiment [5] concerns the target T4, NIH/3T3 cells overexpressing FGFR3 WT-TACC3 fusion protein (Homo sapiens, UniProt P22607).
T4 construct: NIH/3T3 FGFR3 WT-TACC3 CTG (IC50); other: 72-hr incubation, CellTiter Glo, starting with 10 μM; fused on or other part: Q9Y6A5 (Transforming acidic coiled-coil-containing protein 3)
In words: NIH/3T3 FGFR3 WT-TACC3 cell proliferation assay. It counts as cell-based. The following applies: 72-hr incubation, CellTiter Glo, starting with 10 μM; read-out: NIH/3T3 FGFR3 WT-TACC3 CTG (IC50). The gist of the method: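 Cells seeded overnight, then exposed 72 h at 37 °C to compound in 9-point 4-fold dilutions from 10 μM (0.1% DMSO final). Viability read by CellTiter-Glo luminescence, normalized to survival %; IC50, pIC50 and Hill slope from concentration-response fit.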

The target in experiment [6] is T5, human FGFR3 V555L enzyme (cytoplasmic domain carrying V555L mutation) (Homo sapiens, UniProt P22607, V555L).
T5 construct: human FGFR3 V555L enzyme (cytoplasmic domain carrying V555L mutation, from Carna Biosciences); purchased Carna Biosciences
T5 sequence (P22607 397-806 V555L limits assumed): as the sequence (P22607 397-806 limits assumed) above, with V159L counted along it
In words: FGFR3 V555L mobility shift assay (enzymatic assay). In kind it is biochemical. The following applies: 40 μM ATP, 50 minutes at 30° C., Caliper EZ reader II. On the procedure:
FGFR3 V555L Mobility Shift Assay (Enzymatic Assay)
In a final reaction volume of 25 μL, 0.04 ng/μL human FGFR3 V555L enzyme (cytoplasmic domain carrying V555L mutation, from Carna Biosciences) was incubated with 40 μM ATP, 1 μM FL-peptide 30 substrate and 250 nL of testing compound (1% DMSO final) in assay buffer (100 mM HEPES pH 7.4, 10 mM MgCl2, 0.003% Brij35, 1 mM DTT). After incubation for 50 minutes at 30° C. the reaction was stopped with 10 μL of 0.5M EDTA pH 8.0, and then 25 μL of reaction mixture was transferred to reading plate and measured on Caliper EZ reader II. The substrate-product conversion rate was used as raw data for normalization and concentration-response curve (10 dose points with 4× serial dilution, starting with 10 μM) was plotted using Prism to calculate IC50 (M), pIC50 (−log IC50) and HillSlope value.

pIC50: −log10 of the molar value.

T4 sequence (P22607 whole entry, change not shown, the tested form may be a part): as the sequence (P22607 whole entry V555M, the tested form may be a part) above, with M555V counted along it

Regarding `C[C@H](Nc1c(-c2nc3cc(C(F)(F)F)c(N4CCN(C)CC4)cc3[nH]2)c(=O)[nH]c2ccccc12)c1ccccn1` [Compound 14, (S)-3-(6-(4-methylpiperazin-1-yl)-5-(trifluoromethyl)-1H-benzo[d]imidazol-2-yl)-4-((1-(pyridin-2-yl)ethyl)amino)quinolin-2(1H)-one], the GI50 in experiment [1] stood at 141 nM; in experiment [5], 52.2 nM. The pIC50 is 5.52 in experiment [2], 8.47 in experiment [3] and 8.67 in experiment [4].

Turning to `C[C@H](Nc1c(-c2nc3ccc(N4CCN(C)C(=O)C4)cc3[nH]2)c(=O)[nH]c2ccccc12)c1ccccn1` [Compound 15, (S)-3-(6-(4-methyl-3-oxopiperazin-1-yl)-1H-benzo[d]imidazol-2-yl)-4-((1-(pyridin-2-yl)ethyl)amino)quinolin-2(1H)-one], the values for the GI50 in experiment [1] and in experiment [5] were 24.9 nM and 12.4 nM, respectively. Moreover, the pIC50 in experiment [2] is 5.92; in experiment [3], 9.07; in experiment [4], 9.45.

As to `C[C@H](Nc1c(-c2nc3ccc(N4CCOCC4)cc3[nH]2)c(=O)[nH]c2c(F)cccc12)c1ccccn1` [Compound 16, (S)-8-fluoro-3-(6-morpholino-1H-benzo[d]imidazol-2-yl)-4-((1-(pyridin-2-yl)ethyl)-amino)quinolin-2(1H)-one], the GI50 in experiment [1] amounted to 274 nM; in experiment [5], 253 nM. The pIC50 in experiment [2] is 5.58; in experiment [3], 7.78; in experiment [4], 8.58.

With `C[C@H](Nc1c(-c2nc3ccc(N4CCOCC4)cc3[nH]2)c(=O)[nH]c2ccc(F)cc12)c1ccccn1` [Compound 17, (S)-6-fluoro-3-(6-morpholino-1H-benzo[d]imidazol-2-yl)-4-((1-(pyridin-2-yl)ethyl)-amino)quinolin-2(1H)-one], the values for the GI50 in experiment [1] and in experiment [5] were 114 nM and 58.7 nM, respectively. The pIC50 in experiment [2] was 6.18; in experiment [3], 8.31; in experiment [4], 9.00.

Turning to `C[C@H](Nc1c(-c2nc3cc(C(F)(F)F)c(NC4CCN(C)CC4)cc3[nH]2)c(=O)[nH]c2ccccc12)c1ccccn1` [Compound 18, (S)-3-(6-((1-methylpiperidin-4-yl)amino)-5-(trifluoromethyl)-1H-benzo[d]imidazol-2-yl)-4-((1-(pyridin-2-yl)ethyl)amino)quinolin-2(1H)-one], the GI50 in experiment [1] was 87.8 nM; in experiment [5] it was 56.8 nM. Further, the pIC50 in experiment [2] is 6.14; in experiment [3], 8.87; in experiment [4], 8.87.

For the compound `C[C@H](Nc1c(-c2nc3cc(C(F)(F)F)c(N(C)C4CCN(C)CC4)cc3[nH]2)c(=O)[nH]c2ccccc12)c1ccccn1` [Compound 19, (S)-3-(6-(methyl(1-methylpiperidin-4-yl)amino)-5-(trifluoromethyl)-1H-benzo[d]-imidazol-2-yl)-4-((1-(pyridin-2-yl)ethyl)amino)quinolin-2(1H)-one], the figures for the GI50 in experiment [1] and in experiment [5] were 66.5 nM and 46.1 nM, respectively. The pIC50 in experiment [2] was 5.61; in experiment [3], 9.44; in experiment [4], 9.45.

Turning to `C[C@H](Nc1c(-c2nc3ccc(C(=O)N4CCOCC4)cc3[nH]2)c(=O)[nH]c2ccccc12)c1ccccn1` [Compound 20, (S)-3-(6-(morpholine-4-carbonyl)-1H-benzo[d]imidazol-2-yl)-4-((1-(pyridin-2-yl)-ethyl)amino)quinolin-2(1H)-one], the GI50 in experiment [1] was determined as 17.1 nM; in experiment [5], 23.5 nM. In addition, the pIC50 in experiment [2] was 6.02; in experiment [3], 9.08; in experiment [4] it was 9.31.

With `Cc1cc(N2CCOCC2)cc2[nH]c(-c3c(N[C@@H](C)c4ncccn4)c4ccccc4[nH]c3=O)nc12` [Compound 46, (S)-3-(4-methyl-6-morpholino-1H-benzo[d]imidazol-2-yl)-4-((1-(pyrimidin-2-yl)ethyl)-amino)quinolin-2(1H)-one], the GI50 is 15.9 nM in experiment [1] and 19.9 nM in experiment [5]. Besides, the pIC50 in experiment [2] is 5.41; in experiment [3] it was 8.93; in experiment [4] it was 9.13.

For the compound `Cc1c(N2CCOCC2)ccc2nc(-c3c(N[C@@H](C)c4ncccn4)c4ccccc4[nH]c3=O)[nH]c12` [Compound 47, (S)-3-(7-methyl-6-morpholino-1H-benzo[d]imidazol-2-yl)-4-((1-(pyrimidin-2-yl)-ethyl)amino)quinolin-2(1H)-one], the GI50 in experiment [1] was 12.3 nM; in experiment [5] it was 16 nM. Further, the results for the pIC50 in experiment [2], in experiment [3] and in experiment [4] were 6.26, 9.17 and 9.57, respectively.

As for `C[C@H](Nc1c(-c2nc3ccc(N4CCOCC4)cc3[nH]2)c(=O)[nH]c2ccccc12)c1ccccn1` [Compound 55, (S)-3-(6-Morpholino-1H-benzo[d]imidazol-2-yl)-4-((1-(pyridin-2-yl)ethyl)amino)-quinolin-2(1H)-one], the GI50 in experiment [1] was 34.3 nM. The pIC50 in experiment [2] was 6.34; in experiment [3], 8.75; in experiment [4], 9.27; in experiment [6], 8.90.

As to `CC(C)N1CCN(c2ccc3nc(-c4c(N[C@@H](C)c5ccccn5)c5ccccc5[nH]c4=O)[nH]c3c2)CC1` [Compound 56, (S)-3-(6-(4-isopropylpiperazin-1-yl)-1H-benzo[d]imidazol-2-yl)-4-((1-(pyridin-2-yl)-ethyl)amino)quinolin-2(1H)-one], in experiment [1], the GI50 stood at 10.7 nM. Moreover, the pIC50 was 6.11 in experiment [2], 9.89 in experiment [3], 10.17 in experiment [4] and 9.87 in experiment [6].

Take `C[C@H](Nc1c(-c2nc3ccc(N4CCN(C)CC4)cc3[nH]2)c(=O)[nH]c2cc(F)ccc12)c1ccccn1` [Compound 63, (S)-7-Fluoro-3-(6-(4-methylpiperazin-1-yl)-1H-benzo[d]imidazol-2-yl)-4-((1-(pyridin-2-yl)ethyl)amino)quinolin-2(1H)-one]: the GI50 in experiment [1] stood at 51.4 nM. The pIC50 is 6.20 in experiment [2], 9.15 in experiment [3], 8.78 in experiment [4] and 8.86 in experiment [6].

Take `C[C@H](Nc1c(-c2nc3ccc(OC4CCN(C)CC4)cc3[nH]2)c(=O)[nH]c2ccccc12)c1ccccn1` [Compound 64, (S)-3-(6-((1-Methylpiperidin-4-yl)oxy)-1H-benzo[d]imidazol-2-yl)-4-((1-(pyridin-2-yl)-ethyl)amino)quinolin-2(1H)-one]: the pIC50 in experiment [3] is 9.43; in experiment [4], 9.58; in experiment [6], 9.30.
